Measurements taken from US6410054B1, “Immediate release eplerenone compositions” (G. D. Searle & Co., priority 1998, dated 2002).
Read-outs that look alike come from different tables or passages of the source. Blank lines part the entries; values can stand above or below the compound they belong to.

Assays:
[1] = ADME study of [14C]eplerenone oral solution: plasma, whole blood, saliva pharmacokinetics; assay type: in vivo, humans; details: for Total Radioactivity AUC0-inf (± SEM) / Total Radioactivity Cmax (± SEM): 100 mg [14C]eplerenone oral solution
Experimental: (§1) An open-label, single dose study was employed to evaluate the absorption, distribution, metabolism and elimination profile of a single 100 mg dose of an oral solution of eplerenone.
(§2) The study employed eight healthy male humans. Each subject received a single 100 mg oral dose of a solution of [^14C]eplerenone (specific activity 0.75 μCi/mg). Plasma, saliva, breath, urine and fecal samples were collected at predetermined intervals and analyzed for sample radioactivity and the concentration of eplerenone and its open lactone ring form. Safety was determined on the basis of laboratory tests, vital signs, and the occurrence and types of adverse events.
(§3) The subjects, who underwent an overnight food fast prior to administration of the dose, received at 0800 hours a single 100 mg oral dose of an aqueous oral solution of radiolabeled eplerenone reconstituted in 80 mL of an apple juice/hydroxypropyl-β-cyclodextrin mixture. The subjects swallowed about 200 mL of water one, two and three hours post dosing.
(§4) Blood samples were collected at −0.5 (predose), 0.5, 1, 1.5, 2, 2.5, 3, 4, 6, 8, 12, 16, 24, 36, 48, 72 and 96 hours post dose. […] Individual fecal samples were collected beginning immediately after dosing and continuing through 0800 hours on day 8. In addition, one predose fecal sample was provided. Saliva samples were taken at 0.5 hour predose and at 0.5, 1, 2, 4, 6, 12, and 24 hours postdose. Breath samples were taken at 0.5 hour predose and at 1, 2, 3, 4, 6, 8, 12, 24, 36, 48 and 72 hours postdose.

[2] = ADME study of [14C]eplerenone oral solution: excretion in urine, feces, breath; assay type: in vivo, humans
Experimental: as §1, §2, §3, §4

ADME study: safety = assay type: in vivo, humans; details: single 100 mg oral solution
Experimental: as §2, §4

plasma proteins = assay: Binding of radioactivity / [14C]eplerenone to plasma proteins; assay type: in vitro ADME, humans
Experimental: The mean concentration of total radioactivity in these samples was 2.39 μg/mL.

[3] = Single dose study: safety; assay type: in vivo; details: single 10-1000 mg oral doses, healthy male humans
Experimental: Antialdosterone activity was determined based on urine levels of sodium and potassium following repeated administration of fludrocortisone. Safety was determined on the basis of laboratory tests, vital signs, and the occurrence and types of adverse events.

[4] = Multiple dose study: serum electrolytes, renin, aldosterone, sex hormone and thyroid profiles; assay type: in vivo, humans
Experimental: Multiple oral dose tolerability and the pharmacokinetics of several dosages of eplerenone were evaluated in a double-blind, randomized, placebo-controlled, rising oral dose, sequential panel study of 40 healthy male subjects (five groups of eight subjects). The study medication was administered in […] sequential dose panels, with each panel including eplerenone, spironolactone and placebo. […] The 100 mg and 200 mg dose capsules corresponded to those described in Examples 7 and 8, respectively. Following a 48-hour interval, the study drug was administered once a day for 11 days. Antialdosterone activity was determined following a fludrocortisone challenge on Days 12-13.
Excretion of total eplerenone (that is, eplerenone and its open ring lactone form) in the urine represented approximately 5% of the dose for all doses administered. Urinary excretion of total eplerenone occurred almost entirely within the first 24 hours after dosing.

[5] = plasma, 100 mg eplerenone oral solution, single dose
[6] = 100 mg [14C]eplerenone oral solution, mean
[7] = male, human, plasma, 100 mg eplerenone oral solution, single dose
[8] = 100 mg [14C]eplerenone oral solution

Plasma Concentration ([1]; 100 mg oral solution of [14C]eplerenone, 0.5 hours after dosing): 63.2 ng/mL
Plasma Concentration ([1]; 100 mg oral solution of [14C]eplerenone, 1.0 hours after dosing): 78.0 ng/mL
Plasma Concentration ([1]; 100 mg oral solution of [14C]eplerenone, 1.5 hours after dosing): 70.8 ng/mL
Plasma Concentration ([1]; 100 mg oral solution of [14C]eplerenone, 2.0 hours after dosing): 59.9 ng/mL
Plasma Concentration ([1]; 100 mg oral solution of [14C]eplerenone, 2.5 hours after dosing): 51.0 ng/mL
Plasma Concentration ([1]; 100 mg oral solution of [14C]eplerenone, 3.0 hours after dosing): 46.9 ng/mL
Plasma Concentration ([1]; 100 mg oral solution of [14C]eplerenone, 4.0 hours after dosing): 41.9 ng/mL
Plasma Concentration ([1]; 100 mg oral solution of [14C]eplerenone, 6.0 hours after dosing): 23.0 ng/mL
Plasma Concentration ([1]; 100 mg oral solution of [14C]eplerenone, 8.0 hours after dosing): 13.0 ng/mL
Plasma Concentration ([1]; 100 mg oral solution of [14C]eplerenone, 48.0 hours after dosing): 0 ng/mL
Plasma Concentration ([1]; 100 mg oral solution of [14C]eplerenone, 72.0 hours after dosing): 0 ng/mL
Plasma Concentration ([1]; 100 mg oral solution of [14C]eplerenone, −0.5 hours after dosing): 0 ng/mL
AUC(0-96) [1, 5]: 352.2 (ng/mL) hr
Mean Residence Time [1, 5]: 3.4 h
Oral Clearance [1, 5]: 306.3 L/h
T1/2 [1, 5]: 3.1 h
Tmax [1, 5]: 1.1 h
dose excreted in feces as the named form [2, 6]: 2.46%
dose excreted in urine as the named form [2, 6]: 4.98%
Structure (SMILES): COC(=O)C1CC2=CC(=O)CCC2(C)C23OC2CC2(C)C(CCC2(O)CCC(=O)O)C13 (centres unmarked) [Open Ring Lactone]

Structure (SMILES): COC(=O)C1CC2=CC(=O)CCC2(C)C23OC2CC2(C)C(CC[C@@]24CCC(=O)O4)C13 (stereo partly drawn) [eplerenone, methyl hydrogen 9,11α-epoxy-17α-hydroxy-3-oxopregn-4-ene-7α,21-dicarboxylate, γ-lactone]
changes in physical examinations, vital signs or clinical laboratory test results (ADME study: safety): no clinically significant changes
serious adverse effects (ADME study: safety): no serious adverse effects
total radioactivity bound to plasma proteins (plasma proteins; 1.5 hour plasma samples, mean): 49.4%
percentage of eplerenone bound (plasma proteins; [14C]eplerenone spiked into frozen control plasma, 14.5 μg/mL): 40.4%
changes in physical examinations, vital signs or clinical laboratory results [3]: no clinically significant changes
severity of adverse events [3]: mild
concentration of total radioactivity ([1]; 1.5 hour plasma samples, mean): 2390 ng/mL
Total Radioactivity AUC0-inf (± SEM) ([1]; Plasma): 18400 ± 1200 ng equivalents hr/mL
Total Radioactivity Cmax (± SEM) ([1]; Plasma): 2490 ± 110 ng equivalents/mL
Total Radioactivity AUC0-inf (± SEM) ([1]; Saliva): 7960 ± 500 ng equivalents hr/mL
Total Radioactivity Cmax (± SEM) ([1]; Saliva): 2170 ± 280 ng equivalents/mL
Total Radioactivity AUC0-inf (± SEM) ([1]; Whole Blood): 12800 ± 800 ng equivalents hr/mL
Total Radioactivity Cmax (± SEM) ([1]; Whole Blood): 1770 ± 80 ng equivalents/mL
concentration at 0.5 h ([1]; male, human, plasma, 100 mg oral solution of [14C]eplerenone, 0.5 hours after dosing): 1340 ng/mL
concentration at 1 h ([1]; male, human, plasma, 100 mg oral solution of [14C]eplerenone, 1.0 hours after dosing): 1620 ng/mL
concentration at 1.5 h ([1]; male, human, plasma, 100 mg oral solution of [14C]eplerenone, 1.5 hours after dosing): 1590 ng/mL
concentration at 2 h ([1]; male, human, plasma, 100 mg oral solution of [14C]eplerenone, 2.0 hours after dosing): 1420 ng/mL
concentration at 2.5 h ([1]; male, human, plasma, 100 mg oral solution of [14C]eplerenone, 2.5 hours after dosing): 1260 ng/mL
concentration at 3 h ([1]; male, human, plasma, 100 mg oral solution of [14C]eplerenone, 3.0 hours after dosing): 1180 ng/mL
concentration at 4 h ([1]; male, human, plasma, 100 mg oral solution of [14C]eplerenone, 4.0 hours after dosing): 1000 ng/mL
concentration at 6 h ([1]; male, human, plasma, 100 mg oral solution of [14C]eplerenone, 6.0 hours after dosing): 596 ng/mL
concentration at 8 h ([1]; male, human, plasma, 100 mg oral solution of [14C]eplerenone, 8.0 hours after dosing): 391 ng/mL
concentration at 12 h ([1]; male, human, plasma, 100 mg oral solution of [14C]eplerenone, 12.0 hours after dosing): 149 ng/mL
concentration at 16 h ([1]; male, human, plasma, 100 mg oral solution of [14C]eplerenone, 16.0 hours after dosing): 68 ng/mL
concentration at 24 h ([1]; male, human, plasma, 100 mg oral solution of [14C]eplerenone, 24.0 hours after dosing): 17.3 ng/mL
concentration at 36 h ([1]; male, human, plasma, 100 mg oral solution of [14C]eplerenone, 36.0 hours after dosing): 0 ng/mL
concentration at 48 h ([1]; male, human, plasma, 100 mg oral solution of [14C]eplerenone, 48.0 hours after dosing): 0 ng/mL
concentration at 72 h ([1]; male, human, plasma, 100 mg oral solution of [14C]eplerenone, 72.0 hours after dosing): 0 ng/mL
concentration at 96 h ([1]; male, human, plasma, 100 mg oral solution of [14C]eplerenone, 96.0 hours after dosing): 0 ng/mL
concentration at -0.5 h ([1]; male, human, plasma, 100 mg oral solution of [14C]eplerenone, −0.5 hours after dosing): 0 ng/mL
Cmax [1, 7]: 1720 ng/mL
half-life [1, 7]: 3.8 h
AUC(0-t) ([1]; male, human, plasma, 100 mg eplerenone oral solution, single dose, read-out: AUC(0-96)): 9540 ng·h/mL
MRT ([1]; male, human, plasma, 100 mg eplerenone oral solution, single dose, read-out: Mean Residence Time): 4.8 h
Tmax ([1]; male, human, plasma, 100 mg eplerenone oral solution, single dose, read-out: Tmax): 1.3 h
Oral Clearance [1, 5]: 11.4 L/h
share of urinary and fecal radioactivity due to eplerenone [2, 8]: less than 15%
urinary radioactivity excreted within the first 24 hours [2, 8]: Over 90%
dose excreted as total radioactivity in feces [2, 6]: 32.0%
dose excreted as total radioactivity in urine [2, 6]: 66.6%
dose excreted in feces as the named form [2, 6]: 0.807%
dose excreted in urine as the named form [2, 6]: 1.65%
total radioactivity in the breath ([2]; any time point, any subject): no detectable concentrations
mean plasma renin (active and total) levels ([4]; 100-1000 mg): dose-related increases
serum aldosterone levels ([4]; 100-1000 mg): dose-related increases
serum sex hormone and thyroid profiles ([4]; 100-1000 mg): did not show any consistent, sustained or dose-related effects
serum potassium concentrations ([4]; multiple dose administration): increases
serum sodium concentrations ([4]; multiple dose administration): transient reductions
serum sodium and potassium concentrations ([4]; single doses): not significantly changed
